Series [1] concerns 4T1 breast cancer cell line. Briefly: Cell viability assay (MTS), platinates. Type of series: cell-based, murine. The conditions noted are these: 48 h. The procedure:
(§1) The LLC cells, breast cancer cell line (4T1), and hepatocellular carcinoma cells (CP20) were seeded into 96-well flat bottomed plates (4×10^3 cells per well). Drugs or SACNs were added at equivalent Pt concentrations and incubated for 48 h. Viability was quantified using the Cell-Titer 96 Aqueous One Solution™ reagent. Cellular apoptosis was quantified using Annexin-V-Alexa Fluor™ 488 conjugate and propidium iodide staining followed by FACS.
(§2) The Lewis lung carcinoma (LLC) cells, breast cancer cell line (4T1), and hepatocellular carcinoma cells (CP20) were purchased from American Type Culture Collection. LLC cells and CP20 cells were cultured in DMEM and 4T1 cells were cultured in RPMI medium 1640-supplemented with 10% FBS, 50 unit/mL penicillin, and 50 unit/mL streptomycin. Trypsinized cultured LLC, 4T1, and CP20 cells were washed twice with PBS and seeded into 96-well flat-bottomed plates (4×10^3 cells per well). Free drugs and SACNs were added at appropriate concentrations (0.01, 0.1, 1, 10, 20, 50 μM Pt concentration). […] After 2 h incubation in 5% CO2 atmosphere at 37° C., the absorbance in each well was recorded at 490 nm using an Epoch (BioTek™) plate reader. Results were quantified by subtracting the blank value from each value then normalizing against the control values and results were analyzed by using Prism™ software (GraphPad). […]

In the next series the test system is 4T1 breast tumors. The procedure: The 4T1 breast cancer cells (3×10^5) were implanted subcutaneously in the flanks of 4-wk-old BALB/c mice. […] PBS (100 μL) by tail-vain injection was used as a control for drug treatment. Treatment was started on day 9 postimplantation, and administered every alternate day till day 13. The tumor volumes and body weights were monitored on a daily basis. The tumor volume was calculated by using the formula, L×B^2.
The tissues were fixed in 10% formalin, paraffin-embedded, and sectioned at the Harvard Medical School Core Facility. Tumor and kidney paraffin sections were deparaffinized and stained with a standard TMR red fluorescent TUNEL kit following the manufacturer's protocol (In Situ Cell Death Detection Kit™, TMR-Red; Roche). The kidney sections were also immunolabeled for KIM1 expression. Images were obtained using a Nikon Eclipse TE2000™ fluorescence microscope equipped with red filter.
The 4T1 breast cancer cells (3×105) were implanted subcutaneously in the flanks of 4-wk-old BALB/c mice (weighing 20 g; Charles River Laboratories). The drug therapy was started on day 9. […] PBS (100 μL) administered by tail-vain injection was used as a control for drug treatment. The tumor volumes and body weights were monitored on a daily basis. The tumor volume was calculated by using the formula, L×B2, where the longest diameter was considered as L and the shortest diameter as measured using a vernier caliper as B. The animals were killed when the average tumor volume of the control exceeded 2,000 mm3 in the control group. The tumors were harvested immediately following sacrifice and stored in 10% formalin for further analysis. All animal procedures were approved by the Harvard Institutional Use and Care of Animals Committee.
The tissues were fixed in 10% formalin, paraffin-embedded, and sectioned at the Harvard Medical School Core Facility. Tumor and kidney paraffin sections were deparaffinized and stained with standard TMR red fluorescent TUNEL kit following the manufacturer's protocol (In Situ Cell Death Detection Kit™, TMR-Red; Roche). Images were obtained using a Nikon Eclipse TE2000 fluorescence microscope equipped with red filter.

The subject of series [2] is Lewis lung carcinoma (LLC) cells. Nature of the series: Cell viability assay (MTS), platinates. Type of series: cell-based. Conditions: 48 h. The procedure: as §1, §2
Series [3] concerns K-Ras^LSL/+/Pten^fl/fl ovarian cancer. Nature of the series: In vivo K-ras^LSL/+/Pten^fl/fl ovarian cancer model, platinates. Details: species or system mice. Conditions: Pt dose equivalent to 3 mg/kg of cisplatin.
Another series concerns 4T1 cells. Nature of the series: FACS analysis of apoptosis (Annexin-V/PI). It counts as cell-based, murine. Conditions: 1 μM Pt, 24 h. The procedure:
The LLC cells, breast cancer cell line (4T1), and hepatocellular carcinoma cells (CP20) were seeded into 96-well flat bottomed plates (4×10^3 cells per well). Drugs or SACNs were added at equivalent Pt concentrations and incubated for 48 h. Viability was quantified using the Cell-Titer 96 Aqueous One Solution™ reagent. Cellular apoptosis was quantified using Annexin-V-Alexa Fluor™ 488 conjugate and propidium iodide staining followed by FACS. […] After 24 h, the cells were washed with PBS and collected at 0° C. The cells were then treated with Annexin-V-Alexa Fluor 488™ conjugate (Molecular Probes, Invitrogen) and incubated in the dark, at room temperature, for 15 min. The cells were then washed with PBS and incubated with propidium iodide (PI) solution ([…]; Sigma) containing RNase (1 mg/mL; Sigma). The cell suspension were then transferred to FACS tubes and analyzed for Annexin-V/PI staining on a BD FACS Calibur™ instrument. Data were analyzed using a CellQuestPro™ software (BD Biosciences).

A short description of series [4]: Maximum tolerated dose (20% body weight loss). It counts as in vivo, BALB/c mice.
Series [5] concerns cisplatin-resistant hepatocellular carcinoma (7404-CP20) cell line. Nature of the series: Cell viability assay (MTS), platinates. It counts as cell-based, human. Conditions: 48 h. The protocol: as §1, §2
Setting [6] is: single dose, Pt equivalent to 8 mg/kg cisplatin.

Read-outs that look alike come from different tables or passages of the source.

`N.N.O=C([O-])C1(C(=O)[O-])CCC1.[Pt+2]` [carboplatin]: the “inhibitory activity (cell viability)” value in series [1] and in series [2] was “In neither of these cell lines did carboplatin exert any inhibitory activity at this concentration range” each time. For the same molecule, in the series on 4T1 breast tumors (setting [6]), the survival entry is “only minor increase in survival over vehicle-treated controls”.
As for `N.N.[Cl][Pt][Cl]` [cisplatin, cis-dichlorodiamineplatinum (II)], the 50% inhibitory concentration (IC50) (commonly the concentration needed to halve the response being measured) in series [1] was found to be 4.72 ± 0.016 µM; in series [2] it was 2.91 ± 0.015 µM; in series [5], 42.84 ± 0.04 µM. Further, the “kidney cell death (TUNEL)” value in series [3] is “induced apoptosis of nephrons”. In series [3], the “tumor apoptosis (TUNEL)” value was “apoptosis”. For the same molecule, the apoptosis and necrosis result in the series on 4T1 cells is on record as “more efficacious than carboplatin”. In addition, in the series with 4T1 breast tumors (multiple dose, 1 and 3 mg/kg, days 9, 11, 13), the tumor growth entry is listed as “dose-dependent inhibition of tumor growth”. The survival result is reported as “increase survival” in the series on 4T1 breast tumors (multiple dose, higher dose) and “only minor increase in survival over vehicle-treated controls” with 4T1 breast tumors (setting [6]). For the same molecule, the tumor inhibition result in the series on 4T1 breast tumors (multiple dose, highest doses (3 mg/kg Pt)) was “identical”; with 4T1 breast tumors (multiple dose, lower doses (1 mg/kg Pt)) it was “greater tumor inhibition as opposed to the higher dose of carboplatin”. Also, the “maximum tolerated dose (MTD)” value in series [4] is 9 mg/kg.

(Values after patent US10300143B2, “Compositions for treating cancer and methods for making the same” (THE BRIGHAM AND WOMEN'S HOSPITAL, INC., priority 2012, dated 2019).)
